Assay results: US9120762B2, “Salts of bicyclo-substituted pyrazolon azo derivatives, preparation method and use thereof” (Jiangsu Hengrui Medicine Co., Ltd., priority 2009, dated 2015)
Converted amounts (≈) assume the structure as drawn. Like-named read-outs stand apart in the source and are kept apart here.

Tests used:
human TPOR = molecular target: T1, human TPOR (Homo sapiens, UniProt P40238); assay: Proliferation effect on BAF3-TPOR cell (CCK-8); assay type: cell-based; settings: rate relative to rhTPO positive control
T1 construct: host or cells: BaF3 (murine pro-B cells), stably transfected, G418-selected
T1 sequence (P40238 26-635): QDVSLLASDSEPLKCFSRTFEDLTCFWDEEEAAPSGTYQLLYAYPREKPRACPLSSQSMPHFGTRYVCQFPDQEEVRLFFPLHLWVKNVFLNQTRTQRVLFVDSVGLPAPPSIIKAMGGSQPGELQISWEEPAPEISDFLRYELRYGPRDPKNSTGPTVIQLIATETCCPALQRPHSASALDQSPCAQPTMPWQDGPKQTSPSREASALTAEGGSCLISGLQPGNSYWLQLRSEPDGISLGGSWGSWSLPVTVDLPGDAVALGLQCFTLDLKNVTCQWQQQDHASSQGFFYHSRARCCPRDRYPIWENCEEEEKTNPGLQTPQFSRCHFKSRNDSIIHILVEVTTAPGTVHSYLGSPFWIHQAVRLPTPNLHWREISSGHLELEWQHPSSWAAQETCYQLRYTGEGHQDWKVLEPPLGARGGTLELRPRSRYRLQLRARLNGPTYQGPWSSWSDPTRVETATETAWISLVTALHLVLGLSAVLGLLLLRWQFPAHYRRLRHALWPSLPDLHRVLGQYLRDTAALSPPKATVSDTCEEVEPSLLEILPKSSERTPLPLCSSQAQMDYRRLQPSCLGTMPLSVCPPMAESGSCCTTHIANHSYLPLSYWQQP
Experimental: (1) Plasmid constructs: based on the TPO receptor (TPOR) sequence information from Entrez (Gene ID: 4325, Refseq: NM_005373), dual-site mutation was performed on EX-B0010-M02 plasmid by using QuikChange® Multi Site Directed Mutagenesis Kit (Stratagene). The sequence of primers containing multi-sites mutation was designed as follows: […]
The E. coli DH5α competent cells were transformed with mutated plasmid, and positive colonies were picked up through ampicillin selection. The mutation result was confirmed by sequence analysis.
(2) BAF3-TPOR stable transfected cell line: the following method was used to construct the BaF3 cell which stably over-expressed functional human TPOR. The successfully mutated EX-B0010-M02 plasmid ([…]) which expressed human TPOR and screening gene neomycin was transfected into wild-type BaF3 cells (1×10^7) by electroporation at 250V for 18 ms using an electric pulse generator (Electro Square Porator ECM830, BTX Division of Genetronic, Inc. US). The stable transfected cells BAF3-TPOR were selected with G418 (Gibco, US), then incubated in RPMI1640 medium plus 10% FBS (Gibco, US), […] G418, 5 ng/mL, rmIL-3 (Chemicon, US).
(1) Washing cells by centrifugation: a suitable amount of cell suspension was centrifuged at 1000 rpm for 5 minutes, and the supernatant was discarded. 10 mL of cell culture media without IL-3 was added. Then the resulting cell suspension was centrifuged at 1000 rpm for 5 minutes, and the supernatant was discarded.
(2) 1 mL of cell culture media without IL-3 was added to beat upon them to equality, and the number of a suitable amount of cell suspension was counted after dilution.
(3) According to the result of the cell counting, a cell suspension in a concentration of 100,000 cell/mL was prepared.
(4) 100 μL of cell suspension was transferred to each well of 96-well culture plate, and there were 3 parallel wells, that is, there were a blank control group (B), a negative control group (N), a positive control group of TPO (P) and a test compound group (S).
(5) The test compound was dissolved in DMSO to prepare a 10 mM stock solution, and then the solution was diluted with RPMI 1640 medium into a series of test samples at different concentration: 30 μM, 10 μM, 3 μM, 1 μM, 0.3 μM, 0.1 μM, 0.03 μM, 0.01 μM, 0.003 μM, 0.001 μM.
(6) 10 μL of test compound solution was transferred to each well respectively; 1 μL of rhTPO (10 ng/mL) was added to positive control well.
(7) The plates were incubated in an incubator at 5% CO2 and 37° C. for 24 hours.
(8) After incubation, 10 μL of CCK-8 solution was added to each well and the plates were incubated in the incubator for another 24 hours.
(9) OD value was detected at 450 nm by VICTORS (Perkin Elmer 1420-120) plate reader.
(1) The proliferation rate was calculated as follows: Rate=[(S−B)/(P−B)]*100%
S: OD value of wells which contain test compound.
B: OD value of blank control wells
P: OD value of positive control wells
(2) The EC50 value was calculated by Origin 7.0 software.

[1] = Pharmacokinetics assay in rats; assay type: in vivo, SD rats; settings: SD rats, intragastric, 50 mg/Kg (as free acid); for Vd/F / AUC / CL/F / half-life / MRT / Cmax / Tmax: both sexes, rat, po; for Vd/F: read-out: Apparent Distribution Volume Vz/F; for AUC: read-out: Area Under Curve AUC; for CL/F: read-out: Clearance CL/F (converted); for half-life: read-out: Half-Life t½ (converted); for MRT: read-out: Mean Residence Time MRT; for Cmax: read-out: Plasma Conc. Cmax; for Tmax: read-out: Time to peak Tmax
Experimental: The compounds of the present disclosure were administrated intragastrically to rats to determine the drug concentration in plasma at different time points by HPLC-UV. The pharmacokinetic behavior of the compounds of the present disclosure was studied and evaluated in rats. […] Healthy adult SD rats, male and female in half, were purchased from SINO-BRITSH SIPPR/BK LAB.ANIMAL LTD., Colo., License number: SCXK (Shanghai) 2003-0002 The test compound was diluted with 1% sodium carboxymethyl cellulose to 5 mg/mL (calculated as the free acid form) of suspension before use. Healthy adult SD rats, male and female in half, were divided into 23 groups. […] The plasma samples were stored at −20° C. until analysis. The rats were fed 2 hours after administration. […] Then the mixture was mixed for 3 minute using a vortexer and centrifuged for 10 minutes at 13,500 rpm. 40 μL of the supernatant was analyzed by HPLC-UV. The compartmental model of pharmacokinetics was fitted for the test compounds and the major pharmacokinetic parameters were calculated in which Cmax and tmax were the actually measured values.

[2] = Solubility assay in water, 0.1% hydrochloric acid and methanol; assay type: physicochemical
Experimental: The solubility was characterized by:
The term “very soluble” refers to that 1 g (mL) of solute can be dissolved in less than 1 mL of solvent;
The term “freely soluble” refers to that 1 g (mL) of solute can be dissolved in from 1 mL to 10 mL, not including 10 mL of solvent;
The term “soluble” refers to that 1 g (mL) of solute can be dissolved in from 10 mL to 30 mL, not including 30 mL of solvent;
The term “sparingly soluble” refers to that 1g (mL) of solute can be dissolved in from 30 mL to 100 mL, not including 100 mL of solvent;
The term “slightly soluble” refers to that 1g (mL) of solute can be dissolved in from 100 mL to 1000 mL, not including 1000 mL of solvent;
The term “very slightly soluble” refers to that 1g (mL) of solute can be dissolved in from 1000 mL to 10000 mL, not including 10000 mL of solvent;
The term “practically insoluble or insoluble” refers to that 1g (mL) of solute cannot be dissolved completely in 10000 mL of solvent.

[3] = 0.1% hydrochloric acid, simulated gastric fluid, 0.1% hydrochloric acid, read-out: solubility
[4] = methanol, organic solvent or mixture, methanol, read-out: solubility

Structure (SMILES) | EC50 (human TPOR) | Area Under Curve AUC ([1]; 50 mg/kg) | Clearance CL/F ([1]; 50 mg/kg) | Half-Life t½ ([1]; 50 mg/kg) | Mean Residence Time MRT ([1]; 50 mg/kg) | Plasma Conc. Cmax ([1]; 50 mg/kg) | Time to peak Tmax ([1]; 50 mg/kg) | solubility [2, 3] | solubility ([2]; methanol) | solubility ([2]; water) | Vd/F ([1]; SD, plasma, 50 mg/kg) | AUC ([1]; SD, plasma, 50 mg/kg) | half-life ([1]; SD, plasma, 50 mg/kg) | MRT ([1]; SD, plasma, 50 mg/kg) | Cmax ([1]; SD, plasma, 50 mg/kg) | Tmax ([1]; SD, plasma, 50 mg/kg) | solubility [2, 4] | solubility ([2]; water, read-out: solubility) | other results
CC1=NN(c2ccc3c(c2)CCC3)C(=O)/C1=N\Nc1cccc(-c2cccc(C(=O)O)c2)c1O [Example 1j, (Z)-2′-hydroxy-3′-[N′-(1-indan-5-yl-3-methyl-5-carbonyl-1,5-dihydro-pyrazol-4-ylidene)-hydrazino]-biphenyl-3-carboxylic acid] | 200 nM | 131000 ± 47000 ng·h/mL | 0.817 ± 0.583 mL/min/kg | 4.21 ± 1.86 h | 3.89 ± 1.78 h | 29050 ± 11440 ng/mL | 4.00 ± 1.41 h | < 1 µg/mL | <1 µg/mL | <1 µg/mL |  |  |  |  |  |  |  |  | 
CC1=NN(c2ccc3c(c2)C(C)(C)CC3)C(=O)/C1=N\Nc1cccc(-c2ccc(C(=O)O)o2)c1O.NCCO.NCCO [Example 4, (Z)-5-(3-{N′-[1-(3,3-dimethyl-indan-5-yl)-3-methyl-5-oxo-1,5-dihydro-pyrazol-4-ylidene]-hydrazino}-2-hydroxy-phenyl)-furan-2-carboxylic acid bis-(ethanolamine)] | 25 nM |  |  |  |  |  |  | 24 µg/mL |  |  | 58.1 ± 47.7 L/kg | 19000 ± 12600 ng·h/mL | 27 ± 31.5 h | 38.3 ± 36.5 h | 2320 ± 1800 ng/mL | 2.25 ± 2.47 h | 19000 µg/mL | 2900 µg/mL | CL/F ([1]; SD, plasma, 50 mg/kg): 40.3 mL/min/kg
CC1=NN(c2ccc3c(c2)C(C)(C)CC3)C(=O)/C1=N\Nc1cccc(-c2ccc(C(=O)O)o2)c1O [Example 4h, (Z)-5-(3-{N′-[1-(3,3-dimethyl-indan-5-yl)-3-methyl-5-oxo-1,5-dihydro-pyrazol-4-ylidene]-hydrazino}-2-hydroxy-phenyl)-furan-2-carboxylic acid] | 32 nM | 9500 ± 8300 ng·h/mL | 54.3 ± 32.2 mL/min/kg | 19.8 ± 16.4 h | 31.7 ± 24.6 h | 1290 ± 380 ng/mL |  | < 1 µg/mL | <1 µg/mL |  |  |  |  |  |  | 2.5 ± 1 h |  | < 1 µg/mL | 
CC1=NN(c2ccc3c(c2)C(C)(C)CC3)C(=O)/C1=N\Nc1cccc(-c2ccc(C(=O)O)o2)c1O [Example 6, (Z)-5-(3-{N′-[1-(3,3-dimethyl-indan-5-yl)-3-methyl-5-oxo-1,5-dihydro-pyrazol-4-ylidene]-hydrazino}-2-hydroxy-phenyl)-furan-2-carboxylic acid bis-(piperazine)] | 36 nM | 175000 ± 41000 ng·h/mL | 5 ± 1.4 mL/min/kg | 45.0 ± 70.3 h | 60.4 ± 90.2 h | 13000 ± 6500 ng/mL | 2.5 ± 1.0 h |  | 3009 µg/mL (≈ 6370 µM) | 1 µg/mL (≈ 2.12 µM) |  |  |  |  |  |  |  |  | solubility ([2]; 0.1% hydrochloric acid): <1 µg/mL
CC1=NN(c2ccc3c(c2)CCCC3)C(=O)/C1=N\Nc1cccc(-c2ccc(C(=O)[O-])o2)c1[O-].[Na+].[Na+] [Example 14, (Z)-5-(2-hydroxy-3-{N′-[3-methyl-5-oxo-1-(5,6,7,8-tetrahydro-naphthalen-2-yl)-1,5-dihydro-pyrazol-4-ylidene]-hydrazino}-phenyl)-furan-2-carboxylic acid disodium salt] | 19 nM |  |  |  |  |  |  | < 1 µg/mL |  |  | 9.54 ± 8.03 L/kg | 132000 ± 189000 ng·h/mL | 4.72 ± 2.82 h | 7.2 ± 2.13 h | 17800 ± 22600 ng/mL | 5.25 ± 1.5 h | 3720 µg/mL | 1880 µg/mL | CL/F ([1]; in vivo): 40 mL/min/kg
CC1=NN(c2ccc3c(c2)CCC3)C(=O)/C1=N\Nc1cccc(-c2ccc(C(=O)O)o2)c1O [Example 16a, (Z)-5-{2-hydroxy-3-[N′-(1-indan-5-yl-3-methyl-5-oxo-1,5-dihydro-pyrazol-4-ylidene)-hydrazino]-phenyl}-furan-2-carboxylic acid] | 100 nM | 15000 ± 17200 ng·h/mL | 49.7 ± 45.8 mL/min/kg | 1.82 ± 0.68 h |  | 6810 ± 6230 ng/mL |  | < 1 µg/mL | <1 µg/mL | <1 µg/mL |  |  |  | 4.03 ± 2.55 h |  | 2.75 ± 0.96 h |  |  | 
